Reference: patent US9527896B2, “Stabilized p53 peptides and uses thereof” (DANA-FARBER CANCER INSTITUTE, INC., priority 2007, dated 2016)
Where two headings read alike, the source gives them in different places. Bridge positions count the residues as written; N and C are the ends. Square brackets hold non-standard residues; d marks the D form. Peptide text beside a SMILES is read from it. R8 = C=CCCCCCC[C@@](C)(N)C(=O)O; S5 = C=CCCC[C@](C)(N)C(=O)O; βAla = NCCC(=O)O

How the values were obtained:
Native HDM2 = molecular target: T1, Native HDM2 (Homo sapiens, UniProt Q00987); assay: Co-immunoprecipitation of FITC-SAH-p53 peptides and endogenous HDM2; type: cell-based; conditions: SJSA-1 cells
T1 construct: Co-Immunoprecipitation of FITC-SAH-p53 Peptides and Endogenous HDM2; endogenous in cells; host or cells: SJSA-1 osteosarcoma cells
T1 sequence (Q00987 whole entry): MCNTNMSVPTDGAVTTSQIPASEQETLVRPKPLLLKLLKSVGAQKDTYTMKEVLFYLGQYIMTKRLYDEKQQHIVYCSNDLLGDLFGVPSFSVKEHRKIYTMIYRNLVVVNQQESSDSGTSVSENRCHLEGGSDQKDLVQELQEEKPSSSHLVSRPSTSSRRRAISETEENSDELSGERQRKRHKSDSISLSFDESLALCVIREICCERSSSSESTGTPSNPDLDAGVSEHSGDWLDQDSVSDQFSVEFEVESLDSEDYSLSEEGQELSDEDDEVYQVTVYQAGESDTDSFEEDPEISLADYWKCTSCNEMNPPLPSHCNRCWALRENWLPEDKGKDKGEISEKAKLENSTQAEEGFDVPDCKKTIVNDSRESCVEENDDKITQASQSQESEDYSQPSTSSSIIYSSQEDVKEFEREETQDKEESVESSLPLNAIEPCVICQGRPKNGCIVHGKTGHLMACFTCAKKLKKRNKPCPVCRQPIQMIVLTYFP
Procedure: FIG. 8 SJSA-1 cells were incubated with FITC-peptides followed by lysis and anti-FITC pull down.
SJSA-1 osteosarcoma cells (1×10^6) were treated with FITC-p53 peptides (15 μM) in serum-free media for 4 hours, followed by serum replacement and additional 8 hour incubation. The cells were thoroughly washed with serum-containing media and PBS and exposed to lysis buffer (50 mM Tris pH 7.6, 150 mM NaCl, 1% Triton-X100, 1 mM PMSF, 1 U mL^−1 benzonase nuclease [EMD Biosciences] and complete protease inhibitor tablet [Roche]) at room temperature. All subsequent steps were all performed at 4° C. The extracts were centrifuged, and the supernatants were incubated with protein A/G sepharose (50 μL 50% bead slurry per 0.5 mL lysatcs; Santa Cruz Biotechnology). The pre-cleared supernatants (500 μL) were collected after centrifugation, incubated with 10 μL of goat-anti-FITC antibody (AbCam) for 1.5 h followed by protein A/G sepharose for an additional 1.5 hours. The immunoprecipitation reactions were pelleted and washed three times with lysis buffer. The precipitated proteins were suspended in SDS-containing loading buffer, boiled, and the supernatants were processed by SDS-PAGE on 4-12% Bis-Tris gels (Invitrogen). The proteins were blotted into Immobilon-P membranes (Millipore). […]

RKO cells = assay: Annexin V binding as an indicator of apoptosis, RKO cells; type: cell-based; conditions: 24 hours
From the text: FIG. 9 Annexin V binding as an indicator of apoptosis.

HDM2 = molecular target: T2, HDM2 (Homo sapiens, UniProt Q00987); assay: Kd (nM)
T2 construct: Co-Immunoprecipitation of FITC-SAH-p53 Peptides and Endogenous HDM2; endogenous in cells; host or cells: SJSA-1 osteosarcoma cells
T2 sequence (Q00987 whole entry, looked up): as the sequence (Q00987 whole entry) above
From the text: The patent's description of the figure: FIGS. 1A-1F Synthesis, Sequence, and Biochemical Analysis of SAH-p53 Peptides. FIG. 1A Non-natural amino acids were synthesized as described and cross-linked by ruthenium-catalyzed ring-closing olefin metathesis. […] Note: UAH-p53-8 is the “unstapled” form of SAH-p53-8.

circular dichroism = conditions: water; pH 7.0; 20 °C; 10-50 uM
SJSA-1 cells [1] = test system: SJSA-1 cells
From the text: After washing with PBS, the cells were fixed in 4% paraformaldehyde, washed with PBS, and treated with DAPI-containing (nuclear counterstain) Vectashield mounting medium (Vector), coverslipped and imaged by confocal microscopy (BioRad 1024 or Nikon E800).

SJSA-1 cells [2] = type: cell-based; conditions: 24 h
Procedure: SJSA-1 osteosarcoma cells (4×10^5 cells per well) were incubated in 96-well plates and treated with p53 peptides in serum-free media for 4 hours, followed by serum replacement and additional incubation for 20 hours. Cell viability was assayed by addition of CellTiter-Glo™ bioluminescence reagent (Promega) and reading luminescence in a Spectramax M5 microplate reader (Molecular Devices). The extent of apoptosis was measured through the detection of caspase-3 activity by exposing the cells to a caspase-3-specific substrate (Oncogene). Fluorescence as a result of substrate cleavage was measured in a Spectramax M5 microplate reader (Molecular Devices).

SJSA-1 cells [3] = type: cell-based; conditions: 24 h; remark: listed apart in the source
Procedure: The cells were then exposed to a caspase-3 specific substrate (Ac-DEVD-AMC ('DEVD' disclosed as SEQ ID NO: 7)). Fluorescence as a result of cleavage was measured in a microplate reader. To determine the specificity of the activity, certain peptides were incubated alongside DEVD-CHO ('DEVD' disclosed as SEQ ID NO: 7), a substrate known to inhibit caspase-3 specifically. The effect of various peptides on caspase-3 activation was examined as follows. […] The cells were then exposed to a caspase-3 specific substrate. Fluorescence as a result of cleavage was measured in a microplate reader. To determine the specificity of the activity, certain peptides were incubated alongside DEVD-CHO ('DEVD' disclosed as SEQ ID NO: 7), a substrate known to inhibit caspase-3 specifically. […] Cell viability was assayed by addition of CellTiter-GloTM bioluminescence reagent (Promega) and reading luminescence in a Spectramax M5 microplate reader (Molecular Devices). The extent of apoptosis was measured through the detection of caspase-3 activity by exposing the cells to a caspase-3-specific substrate (Oncogene). Fluorescence as a result of substrate cleavage was measured in a Spectramax M5 microplate reader (Molecular Devices).

[4] = Ex vivo protease stability in serum; type: in vitro ADME, mouse
Procedure: FIG. 5 To determine whether SAH-p53 peptides have increased proteolytic stability, the wild type p5314-29 peptide and SAH-p53-4 were exposed to serum ex vivo.
To assess the protease stability of the peptides, fluoresceinated peptides (2.5 μg) were incubated with fresh mouse serum (20 μL) at 37° C. for 0-24 hours. The level of intact fluoresceinated compound was determined by flash freezing the serum specimens in liquid nitrogen, lyophilization, extraction in 1:1 CH3CN:H2O containing 0.1% TFA, followed by HPLC-based quantitation using fluorescence detection at excitation/emission settings of 495/530 nm.

HDM217-125 = molecular target: T3, HDM217-125 (Homo sapiens, UniProt Q00987); assay: Fluorescence polarization binding assay, FITC-peptides and HDM217-125; conditions: FITC-labeled derivatives
T3 construct: plasmid encoding HDM217-125 with an N-terminal hexahistidine tag; hexahistidine tag (N, cleaved yes); thrombin cleavage site (N, cleaved yes); made in house; host or cells: Escherichia coli BL21 (DE3)
T3 sequence (Q00987 17-125 limits assumed): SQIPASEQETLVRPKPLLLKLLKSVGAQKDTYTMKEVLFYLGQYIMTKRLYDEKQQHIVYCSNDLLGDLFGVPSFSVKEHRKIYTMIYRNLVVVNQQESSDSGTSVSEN
Procedure: (§1) FIG. 10 Fluorescence polarization binding assay of stapled peptides. Fluoresceinated peptides (5 nM) were incubated with recombinant HDM217-125 (25 pM-10 μM) at room temperature. Binding activity was measured by fluorescence polarization, and Kd values were obtained by […].
as §1, with “A fluorescence” for “FIG. 10 Fluorescence”, “assay was used to assess binding” for “assay”, “peptides to HDM217-125.” for “stapled peptides.”, “KD” for “Kd”
Purified HDM217-125 was prepared as follows. […]
and a thrombin cleavage site were cultured in kanamycin- and chloramphenicol-containing Luria Broth and induced with 0.1 mM isopropyl β-D-thiogalactoside (IPTG). […] Purity of the protein was assessed by SDS-PAGE, FPLC and MALDI-TOF and determined to be >90%. […]
Fluoresceinated compounds (LT=5-25 nM) were incubated with HDM217-125 in binding assay buffer (140 mM NaCl, 50 mM, Tris pH 8.0) at room temperature. Binding activity was measured by fluorescence polarization on a Perkin-Elmer LS50B luminescence spectrophotometer using a cuvette containing a stirbar or a Spectramax M5 Microplate Reader (Molecular Devices). Kd values were determined by nonlinear regression analysis of dose response curves using Prism software 4.0 Graphpad. […]

co-immunoprecipitation of native HDM2 (anti-FITC pull down) (Native HDM2) | Kd (HDM2) | cellular fluorescence (SJSA-1 cells [1]) | EC50 (SJSA-1 cells [2]) | EC50 (SJSA-1 cells [3]) | proteolytic stability [4] | serum half-life (t1/2) compared with unmodified wild type peptide ([4]; exposed to serum ex vivo) | HDM2 binding affinity (HDM217-125) | Molecule | apoptosis induction (annexin V, FACS) (RKO cells) | helicity (circular dichroism)
co-immunoprecipitated | – | – | – | – | – | – | – | FITC-SAH-p53-8: N-terminally fluoresceinated SAH-p53-8 | – | –
– | 56 ± 11 nM | – | – | – | – | – | – | CC(=O)NCCC(=O)N[C@@H](CC(C)C)C(=O)N[C@@H](CO)C(=O)N[C@@H](CCC(N)=O)C(=O)N[C@@H](CCC(N)=O)C(=O)N[C@H](C(=O)N[C@@H](Cc1ccccc1)C(=O)N[C@]1(C)CCCCCCC=CCCC[C@@](C)(C(=O)N[C@@H](CCC(N)=O)C(=O)N[C@@H](CC(N)=O)C(N)=O)NC(=O)[C@H](CC(C)C)NC(=O)[C@H](CC(C)C)NC(=O)[C@H](CCCNC(=N)N)NC(=O)[C@H](Cc2c[nH]c3ccccc23)NC(=O)[C@H](CC(C)C)NC(=O)[C@H](CC(N)=O)NC1=O)[C@@H](C)O [SAH-p53-6] (Ac-[βAla]LSQQTF[R8]NLWRLL[S5]QN-NH2; staple 8-15) | caused significant apoptosis | 14%
– | 55 ± 11 nM | Cellular fluorescence was observed | 8800 nM | 5800 nM | – | – | – | CC(=O)NCCC(=O)N[C@@H](CCC(N)=O)C(=O)N[C@@H](CO)C(=O)N[C@@H](CCC(N)=O)C(=O)N[C@@H](CCC(N)=O)C(=O)N[C@H](C(=O)N[C@@H](Cc1ccccc1)C(=O)N[C@]1(C)CCCCCCC=CCCC[C@@](C)(C(=O)N[C@@H](CCC(N)=O)C(=O)N[C@@H](CC(N)=O)C(N)=O)NC(=O)[C@H](CC(C)C)NC(=O)[C@H](CC(C)C)NC(=O)[C@H](CCCNC(=N)N)NC(=O)[C@H](Cc2c[nH]c3ccccc23)NC(=O)[C@H](CC(C)C)NC(=O)[C@H](CC(N)=O)NC1=O)[C@@H](C)O [SAH-p53-8] | – | 85%
– | 0.92 ± 0.11 nM | – | – | – | improved proteolytic stability | almost four times longer | subnanomolar | CC(=O)NCCC(=O)N[C@@H](CC(C)C)C(=O)N[C@@H](CO)C(=O)N[C@@H](CCC(N)=O)C(=O)N[C@@H](CCC(=O)O)C(=O)N[C@H](C(=O)N[C@@H](Cc1ccccc1)C(=O)N[C@]1(C)CCCCCCC=CCCC[C@@](C)(C(=O)N[C@@H](CCC(=O)O)C(=O)N[C@@H](CC(N)=O)C(N)=O)NC(=O)[C@H](CC(C)C)NC(=O)[C@H](CC(C)C)NC(=O)[C@H](CCCCN)NC(=O)[C@H](Cc2c[nH]c3ccccc23)NC(=O)[C@H](CC(C)C)NC(=O)[C@H](CC(=O)O)NC1=O)[C@@H](C)O [SAH-p53-4] | – | 59%
